# Source: patent US8575163B2, “Pyrrolopyridinylpyrimidin-2-ylamine derivatives” (Merck Patent GmbH, priority 2009, dated 2013)
# Molecular target: T1, PDK1 (Homo sapiens, UniProt O15530)
# T1 construct: His6 (N)
# T1 sequence (O15530 51-556 limits assumed): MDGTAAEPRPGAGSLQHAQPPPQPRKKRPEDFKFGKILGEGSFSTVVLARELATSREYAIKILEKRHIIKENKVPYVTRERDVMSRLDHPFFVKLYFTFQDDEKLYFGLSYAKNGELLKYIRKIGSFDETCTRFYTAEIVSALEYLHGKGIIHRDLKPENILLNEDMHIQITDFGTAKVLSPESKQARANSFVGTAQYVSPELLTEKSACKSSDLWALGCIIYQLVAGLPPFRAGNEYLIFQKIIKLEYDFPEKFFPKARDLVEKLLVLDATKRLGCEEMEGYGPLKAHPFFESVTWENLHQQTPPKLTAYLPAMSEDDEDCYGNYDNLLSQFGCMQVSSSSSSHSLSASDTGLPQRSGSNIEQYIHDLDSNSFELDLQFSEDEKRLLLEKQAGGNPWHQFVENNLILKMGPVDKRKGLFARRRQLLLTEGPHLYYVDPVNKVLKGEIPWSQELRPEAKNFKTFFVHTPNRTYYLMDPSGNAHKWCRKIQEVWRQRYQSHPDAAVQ
# Assay: Test for the inhibition of PDK1 (flashplate, 33P-ATP)
# Format: biochemical
# Details: His6-PDK1 3.4 nM, 4 μM ATP, 30° C., 60 min
# Experimental: The experimental batches are carried out in a flashplate system with 384 wells/microtitration plate.
# In each case, the PDK1 sample His6-PDK1(1-50)(3.4 nM), the PDK1 substrate biotin-bA-bA-[…] (400 nM), 4 μM ATP (with 0.2 μCi of ^33 P-ATP/well) and the test substance in 50 μl of conventional experimental solution per well are incubated at 30° C. for 60 min. The test substances are employed in corresponding concentrations (if desired in a dilution series). The control is carried out without test substance. The reaction is stopped using standard methods and washed. The activity of the kinase is measured via the incorporated radioactivity in top count. In order to determine the non-specific kinase reaction (blank value), the experimental batches are carried out in the presence of 100 nM staurosporin.
# The radioactivity (decompositions per minute) of the blank value (no use of test substance in the presence of staurosporin) is subtracted from all other radioactivity values. The controls (kinase activity without test substance) are set equal to 100 percent and all other radioactivity values (after subtracting the blank value) are expressed set in relation thereto (for example in % of the control).
# [formula] IC50 values (50% inhibition) are determined with the aid of statistics programmes, such as, for example, RS1.
row,Structure (SMILES),IC50 [nM]
1,"CC[C@](OCOC)(c1cccc(F)c1)c1cc(-c2c[nH]c3ncc(Br)cc23)nc(N)n1 [A52, 4-(5-bromo-1H-pyrrolo[2,3-b]pyridin-3-yl)-6-[(S)-1-(3-fluorophenyl)-1-methoxymethoxypropyl]pyrimidin-2-ylamine]",> 30000
2,"CCC(OCOC)(c1cccc(F)c1)c1cc(-c2c[nH]c3ncc(Br)cc23)nc(N)n1 (centres unmarked) [A54, 4-(5-bromo-1H-pyrrolo[2,3-b]pyridin-3-yl)-6-[1-(3-fluorophenyl)-1-methoxymethoxypropyl]pyrimidin-2-ylamine]",1500
3,"CC(O)(c1cccc(F)c1)c1cc(-c2c[nH]c3ncc(-c4ccc(CC#N)cc4)cc23)nc(N)n1 (centres unmarked) [A55, [4-(3-{2-amino-6-[1-(3-fluorophenyl)-1-hydroxyethyl]pyrimidin-4-yl}-1H-pyrrolo[2,3-b]pyridin-5-yl)phenyl]acetonitrile]",75
4,"CC(O)(c1cccc(F)c1)c1cc(-c2c[nH]c3ncc(-c4cnn(CC(=O)N5CCCCC5)c4)cc23)nc(N)n1 (centres unmarked) [A59, 2-[4-(3-{2-amino-6-[1-(3-fluorophenyl)-1-hydroxyethyl]pyrimidin-4-yl}-1H-pyrrolo[2,3-b]pyridin-5-yl)pyrazol-1-yl]-1-piperidin-1-ylethanone]",69
5,"CC(O)(c1ccccc1)c1cc(-c2c[nH]c3ncc(-c4cnn(CCC(=O)NCCN)c4)cc23)nc(N)n1 (centres unmarked) [A60, N-(2-aminoethyl)-3-(4-{3-[2-amino-6-(1-hydroxy-1-phenylethyl)pyrimidin-4-yl]-1H-pyrrolo[2,3-b]pyridin-5-yl}pyrazol-1-yl)propionamide]",24
6,"CC(O)(c1ccncc1)c1cc(-c2c[nH]c3ncc(-c4cnn(CC(=O)N5CCCCC5)c4)cc23)nc(N)n1 (centres unmarked) [A61, 2-(4-{3-[2-amino-6-(1-hydroxy-1-pyridin-4-ylethyl)pyrimidin-4-yl]-1H-pyrrolo-[2,3-b]pyridin-5-yl}pyrazol-1-yl)-1-piperidin-1-ylethanone]",2.1
7,"CC(O)(c1ccncc1)c1cc(-c2c[nH]c3ncc(-c4cn[nH]c4)cc23)nc(N)n1 (centres unmarked) [A62, 1-{2-amino-6-[5-(1H-pyrazol-4-yl)-1H-pyrrolo[2,3-b]pyridin-3-yl]pyrimidin-4-yl}-1-pyridin-4-ylethanol]",2.8
8,"CC(C)(C)OC(=O)NCCNC(=O)CCn1cc(-c2cnc3[nH]cc(-c4cc(C(C)(O)c5ccccc5)nc(N)n4)c3c2)cn1 (centres unmarked) [A63, tert-butyl {2-[3-(4-{3-[2-amino-6-(1-hydroxy-1-phenylethyl)pyrimidin-4-yl]-1H-pyrrolo[2,3-b]pyridin-5-yl}pyrazol-1-yl)propionylamino]ethyl}carbamate]",110
9,"Cn1cc(-c2cnc3[nH]cc(-c4cc(C(C)(O)c5ccncc5)nc(N)n4)c3c2)cn1 (centres unmarked) [A64, 1-{2-amino-6-[5-(1-methyl-1H-pyrazol-4-yl)-1H-pyrrolo[2,3-b]pyridin-3-yl]-pyrimidin-4-yl}-1-pyridin-4-ylethanol]",3.3
10,"COCO[C@](C)(c1cccc(F)c1)c1cc(-c2c[nH]c3ncc(Br)cc23)nc(N)n1 [A73, 4-(5-bromo-1H-pyrrolo[2,3-b]pyridin-3-yl)-6-[(R)-1-(3-fluorophenyl)-1-methoxymethoxyethyl]pyrimidin-2-ylamine]",> 30000
11,"COCOC(C)(c1ccccc1)c1cc(-c2c[nH]c3ncc(-c4cnn(CCC(=O)O)c4)cc23)nc(N)n1 (centres unmarked) [A77, 3-(4-{3-[2-amino-6-(1-methoxymethoxy-1-phenylethyl)pyrimidin-4-yl]-1H-pyrrolo[2,3-b]pyridin-5-yl}pyrazol-1-yl)propionic acid]",43

# Continued by falling IC50, values first:
row,IC50 [nM],Structure (SMILES)
1,950,"COCO[C@@](C)(c1cccc(F)c1)c1cc(-c2c[nH]c3ncc(Br)cc23)nc(N)n1 [A72, 4-(5-bromo-1H-pyrrolo[2,3-b]pyridin-3-yl)-6-[(S)-1-(3-fluorophenyl)-1-methoxymethoxyethyl]pyrimidin-2-ylamine]"
2,650,"CC[C@@](OCOC)(c1cccc(F)c1)c1cc(-c2c[nH]c3ncc(Br)cc23)nc(N)n1 [A51, 4-(5-bromo-1H-pyrrolo[2,3-b]pyridin-3-yl)-6-[(R)-1-(3-fluorophenyl)-1-methoxymethoxypropyl]pyrimidin-2-ylamine]"
3,150,"COCOC(C)(c1ccncc1)c1cc(-c2c[nH]c3ncc(Br)cc23)nc(N)n1 (centres unmarked) [A56, 4-(5-bromo-1H-pyrrolo[2,3-b]pyridin-3-yl)-6-(1-methoxymethoxy-1-pyridin-4-ylethyl)pyrimidin-2-ylamine]"
4,91,"CC(O)(c1ccccc1)c1cc(-c2c[nH]c3ncc(-c4cnn(CCC(=O)N5CCCCC5)c4)cc23)nc(N)n1 (centres unmarked) [A66, 3-(4-{3-[2-amino-6-(1-hydroxy-1-phenylethyl)pyrimidin-4-yl]-1H-pyrrolo-[2,3-b]pyridin-5-yl}pyrazol-1-yl)-1-piperidin-1-ylpropan-1-one]"
5,79,"CNC(=O)CCn1cc(-c2cnc3[nH]cc(-c4cc(C(C)(OCOC)c5ccccc5)nc(N)n4)c3c2)cn1 (centres unmarked) [A75, 3-(4-{3-[2-amino-6-(1-methoxymethoxy-1-phenylethyl)pyrimidin-4-yl]-1H-pyrrolo[2,3-b]pyridin-5-yl}pyrazol-1-yl)-N-methylpropionamide]"
6,79,"CCOC(C)(c1ccccc1)c1cc(-c2c[nH]c3ncc(-c4cnn(C)c4)cc23)nc(N)n1 (centres unmarked) [A76, 4-(1-ethoxy-1-phenylethyl)-6-[5-(1-methyl-1H-pyrazol-4-yl)-1H-pyrrolo-[2,3-b]pyridin-3-yl]pyrimidin-2-ylamine]"
7,74,"CC(O)(c1ccccc1)c1cc(-c2c[nH]c3ncc(-c4cnn(CCC(=O)N5CCOCC5)c4)cc23)nc(N)n1 (centres unmarked) [A68, 3-(4-{3-[2-amino-6-(1-hydroxy-1-phenylethyl)pyrimidin-4-yl]-1H-pyrrolo-[2,3-b]pyridin-5-yl}pyrazol-1-yl)-1-morpholin-4-ylpropan-1-one]"
8,68,"COCOC(C)(c1ccccc1)c1cc(-c2c[nH]c3ncc(-c4cnn(CCC(N)=O)c4)cc23)nc(N)n1 (centres unmarked) [A74, 3-(4-{3-[2-amino-6-(1-methoxymethoxy-1-phenylethyl)pyrimidin-4-yl]-1H-pyrrolo[2,3-b]pyridin-5-yl}pyrazol-1-yl)propionamide]"
9,48,"COC(=O)CCn1cc(-c2cnc3[nH]cc(-c4cc(C(C)(O)c5ccccc5)nc(N)n4)c3c2)cn1 (centres unmarked) [A70, methyl 3-(4-{3-[2-amino-6-(1-hydroxy-1-phenylethyl)pyrimidin-4-yl]-1H-pyrrolo[2,3-b]pyridin-5-yl}pyrazol-1-yl)propionate]"
10,28,"CC(O)(c1ccccc1)c1cc(-c2c[nH]c3ncc(-c4cnn(CCC(=O)N5CCOCC5)c4)cc23)nc(N)n1 (centres unmarked) [A67, 3-(4-{3-[2-amino-6-(1-hydroxy-1-phenylethyl)pyrimidin-4-yl]-1H-pyrrolo-[2,3-b]pyridin-5-yl}pyrazol-1-yl)-1-morpholin-4-ylpropan-1-one]"
11,25,"CC(O)(c1ccccc1)c1cc(-c2c[nH]c3ncc(-c4cnn(CCC(=O)N5CCC(O)C5)c4)cc23)nc(N)n1 (centres unmarked) [A65, 3-(4-{3-[2-amino-6-(1-hydroxy-1-phenylethyl)pyrimidin-4-yl]-1H-pyrrolo-[2,3-b]pyridin-5-yl}pyrazol-1-yl)-1-(3-hydroxypyrrolidin-1-yl)propan-1-one]"
12,15,"CC(O)(c1ccccc1)c1cc(-c2c[nH]c3ncc(-c4cnn(CCC(N)=O)c4)cc23)nc(N)n1 (centres unmarked) [A71, 3-(4-{3-[2-amino-6-(1-hydroxy-1-phenylethyl)pyrimidin-4-yl]-1H-pyrrolo-[2,3-b]pyridin-5-yl}pyrazol-1-yl)propionamide]"
